From the METLIN SMRT retention time set (Domingo-Almenara et al. 2019)

Assay: gradient 5% acetonitrile 3 min, to 50% in 2 min, to 85% in 15 min, held 3 min, 100 µL/min
Settings: column: Zorbax Extend-C18 2.1 x 50 mm; eluents: water / acetonitrile, 0.1% formic acid
Summary of the method: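 Retention times of pure standards were taken from adduct peaks that were selected by computer and manually inspected. Over 3 months, mixtures of ~100 molecules were run by HPLC–quadrupole time-of-flight mass spectrometry in positive and negative ionization mode. The Zorbax Extend-C18 column (2.1 × 50 mm, 1.8 μm) ran at 100 μL/min in water and acetonitrile, each containing 0.1% formic acid, with 40 μL dead volume and 900 μL dwell volume.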

| Structure (SMILES) | RP-LC retention time [s] |
| --- | --- |
| CCc1c(C(=O)O)nnn1-c1ccc(C(F)(F)F)cc1 | 800 |
| Cc1cc(N2CCC(NC(=O)Nc3cccc(Cl)c3F)C2=O)ccc1F (stereo not given) | 945 |
| Cc1ccc(CNS(=O)(=O)c2cc(-c3nc(C(C)(C)C)cs3)cs2)cc1C | 1350 |
| CCc1ccc(C2=C(C)C(N3CCCN(C(=O)COC)CC3)=NS2(=O)=O)cc1 | 742 |
| CCn1c(CNC(=O)C2CCC2)nc2c1CN(C(=O)c1ccc(OC)cc1)CC2 | 612 |
| O=C(c1cccc(Cl)c1)N1CCc2nc(-c3ccc(Cl)cc3)ncc2C1 | 1140 |
| COc1ccc(C2C(C(=O)NC3CCCCCC3)CCC(=O)N2c2ccc(OC)cc2)cc1 (stereo not given) | 807 |
| O=C(C1=CN(c2ccc3c(c2)OCCO3)c2cc(F)ccc2S1(=O)=O)N1CCCC1 | 735 |
| NC1CCN(O)C1=O (stereo not given) | 621 |
| O=C(CN1CCC2(CC1)N=C(c1ccc(Br)cc1)C(=O)N2)Nc1ccc(F)cc1 | 700 |
| O=C(O)CCCCC(CCSCc1ccccc1)SCc1ccccc1 (stereo not given) | 670 |
| Cc1nc(-c2cnccn2)n(CC(=O)Nc2ccc3c(c2)OCCO3)c(=O)c1C | 688 |
| Cc1ccc(CNC(=O)C2CCCN(S(=O)(=O)c3c[nH]c(C(=O)N4CCCCCC4)c3)C2)cc1 (stereo not given) | 883 |
| O=C(NCc1ccccc1)c1nnc(-c2ccc(S(=O)(=O)N3CCCC3)cc2)o1 | 879 |
| CC(C)NC(=O)c1cn2c(n1)CCCC2 | 545 |
| CCSc1nnc(NC(=O)C2CCN(S(=O)(=O)c3ccc4c(c3)sc(=O)n4C)CC2)s1 | 862 |
| CSc1ncn(-c2nc(N(C)C)nc(N3CCCCC3)n2)n1 | 1090 |
| O=C(CC1CCCC1)N1CCC(c2noc(-c3cnccn3)n2)C1 (stereo not given) | 726 |
| Cc1ccc(OCC(O)Cn2c(C3CC3)nc3ccccc32)cc1C (stereo not given) | 724 |
| Cc1ccccc1Cc1nc(-c2ccnc(N3CCOCC3)c2)no1 | 908 |
| COc1ccc(C(O)Cn2ccn3nc(-c4cccs4)cc3c2=O)cc1 (stereo not given) | 848 |
| Cc1nc(-c2csc(S(=O)(=O)N3CCC(C(=O)NC4CCCCC4)CC3)c2)no1 | 879 |
| CCn1nnc2ccc(-c3noc(C(C)NC(=O)c4ccccc4)n3)cc21 (stereo not given) | 689 |

| Structure (SMILES) | RP-LC retention time [s] |
| --- | --- |
| Cc1nc(-c2cccs2)c(CCC(=O)Nc2nccs2)s1 | 752 |
| CCOC(=O)c1noc2nc(C)nc(NCc3ccc(CC)cc3)c12 | 722 |
| O=C(NCCN1CCN(C(=O)c2cc(=O)c3ccccc3o2)CC1)c1ccsc1 | 557 |
| Cc1cn(C)c(CC(=O)NCCCN2CCN(C)CC2)c1C(=O)O | 561 |
| Cc1cc2c(=O)n(CC(=O)NCc3ccc(F)cc3)ccc2s1 | 751 |
| CCN(C(=O)C1CCCN1S(=O)(=O)c1cc2c(cc1Cl)NC(=O)CO2)c1cccc(C)c1 (stereo not given) | 816 |
| COc1ccc2[nH]cc(CCNC(=O)CN3C(=O)CSc4cccn4-c4ccccc43)c2c1 | 859 |
| O=C(NC1CC1)[C@@H]1C[C@H](Oc2cccnc2)CN1C(=O)Cn1c(=O)oc2ccccc21 | 596 |
| COCCCNc1onc(-c2ccc(Cl)cc2)c1C(=O)OC | 1000 |
| Cc1ccc(C(=O)Nc2cc(-c3cccnc3)no2)cc1 | 764 |
| Cc1ccc(-c2nc(-c3ccc4c(c3)nc(C)c(=O)n4C)no2)cc1C | 1180 |
| Cc1ccc(NC(=O)N2CCCC(Cn3c(C4CC4)nc4cccnc43)C2)cc1F (stereo not given) | 717 |
| CCc1ccc(-n2nnc3c(=O)n(Cc4nc(-c5ccccc5Cl)no4)cnc32)cc1 | 1120 |
| O=C(c1ccc2ccccc2n1)N1CC(n2ccnc2)C1 | 604 |
| COc1ccc(S(=O)(=O)N2C[C@@H](F)C[C@H]2C(=O)N2CCc3ccccc3C2)cc1 | 877 |
| CC(C)n1c(=O)sc2cc(S(=O)(=O)N3CCC(C(=O)N(C)C4CCCCC4)CC3)ccc21 | 716 |
| O=C(NCCc1c[nH]c2ccccc12)C1CCN(c2ccncc2)CC1 | 610 |
| COc1cc(OC)c(NC(=O)c2[nH]c(C)c(S(=O)(=O)N3CCCC3)c2C)cc1Cl | 982 |
| CS(=O)(=O)N(CC(=O)NCc1ccc2c(c1)OCCCO2)Cc1ccc(Cl)cc1 | 889 |
| Cc1cc2n(n1)CCCN2C(=O)CCC(=O)N1CCN(c2ccccn2)CC1 | 555 |
| CN1CCC(OC2CCN(S(=O)(=O)c3ccccc3F)CC2)CC1 | 620 |
| CCOC(=O)CNC(=O)NCc1cccn1Cc1cccc(C)c1 | 834 |
